Test results: US20070111258A1, “Compositions and methods for modulating the acute phase response” (priority 2005, published 2007)

Assays:
[1] = system: ApoB mRNA; experiment: Endogenous ApoB mRNA in mouse liver; type: in vivo; conditions: Tm 2 μg/gram body weight i.p.; liver at 24 hours
Method: C57BL/6J mice at 3-months of age were injected intraperitoneally with Tm (2 μg/gram body weight) in 150 mM dextrose solution. Mice were injected with the same volume of dextrose solution as a control. Liver tissue were collected from mice at 24 hours after injection for RNA isolation. Quantitative real-time RT-PCR was used to determine the ApoB and the spliced XBP1 mRNA levels. Fold changes of mRNA induction were determined after normalization of the mRNA levels to internal control 18S ribosomal RNA levels. Data points are fold changes of the ApoB or spliced XBP1 mRNA levels for individuals, n=5 mice per injection.

[2] = system: CRP and SAP mRNA; experiment: CRP and SAP mRNA in mouse primary hepatocytes (Northern blot); type: cell-based; conditions: Tm 5 μg/ml 2, 4, 6, 8 hours
Method: Primary hepatocytes were isolated from fetal livers of C57BL/6J mice at embryonic stage E18, and were then treated with Tm (5 μg/ml) for 2, 4, 6, and 8 hours. Total RNA was isolated and subjected to Northern blot analysis to determine levels of CRP, SAP and BiP mRNAs (upper panel). Levels of spliced XBP1 mRNA were determined by quantitative real-time RT-PCR (lower panel). For panels A-B, experiments were performed at least 3 times and representative data are shown. […] Quantitative real-time RT-PCR was used to determine the mRNA levels.
Primary hepatocytes were isolated from fetal livers of C57BL/6J mice at embryonic stage E18 as previously described (Mackey and Darlington, 2004).

[3] = system: CREBH mRNA; experiment: CREBH mRNA induction in H2.35 cells (Northern blot, quantitative real-time RT-PCR); type: cell-based; conditions: murine H2.35 hepatoma cells; IL6 40 ng/ml, TNFα 20 ng/ml, IL1β 40 ng/ml, DTT 5 mM, Tg 0.5 μM, Tm 5 μg/ml, BFA 0.5 μg/ml; 4, 8, 12 hours
Method: FIG. 1 depicts the induction of expression of CREBH during fetal liver development and by proinflammatory cytokines. (A) Structural comparison of CREBH and ATF6. The domains are indicated by residue numbers of amino acids. (B) Northern blot analysis of CREBH mRNA levels in various tissues from mice. Tissue samples were collected from 3-month-old wild-type C57BL/6J mice. Levels of β-actin mRNA were determined for control of sample loading. (C) Expression profile of CREBH mRNA in fetal livers during embryogenesis. (D) Induction of CREBH mRNA in murine hepatoma cell line H2.35 under IL6 (40 ng/ml) stimulation for various time points. For panels A-D, experiments were performed at least 3 times and representative data are shown.
FIG. 2 depicts the analysis of gene expression in H2.35 cells. H2.35 cells were treated with 20 ng/ml TNFα, 40 ng/ml IL1β, 20 μg.ml LPS, 5 mM DTT, 0.5 μM Tg, 5 μg/ml Tm or 0.5 μg/ml BFA for 4, 8 and 12 hours, respectively. Levels of CREBH mRNA (A) and spliced XBP1 mRNA (B) in H2.35 were determined by quantitative real-time RT-PCR. Fold changes of mRNA induction were determined after normalization of the mRNA levels to internal control 18S ribosomal RNA levels. […] However, expression from the SAP or CRP promoter-reporter plasmids is sufficiently measurable in H2.35 cells so that it is possible to investigate transcriptional activation effects of CREBH on the CRP and SAP promoters by reporter assays in H2.35 cells. These reporter experiments are not possible in non-hepatocyte cell lines. However, for non-hepatocyte cell lines, such as wild-type and mutant CHO cells, CREBH cleavage and activation could be measured using the UPRE reporter assay. (C) Summary of stimuli that induce CREBH mRNA, NF-κB activation and the UPR in H2.35 and HepG2 cells. (D) Expression of BiP and GRP94 in H2.35 cells over-expressing CREBH or ATF6. H2.35 cells in a 35 mm collagen-coated plate were transfected with 1.5 μg empty DNA vector, vector expressing the nuclear form of CREBH (CREBH-N) or vector expressing nuclear form of ATF6 (ATF6 p50), respectively. Expression levels of BiP and GRP 94 were determined by Western blot analysis by using a murine and —BiP monoclonal antibody and a murine anti-GRP94 monoclonal antibody, respectively. The membranes were re-blotted with an anti-α-actin antibody for control of sample loading.
Northern blot analysis was performed according to standard procedures (Sambrook et al., 1989). ^32P-labeled probes were prepared using a random prime labeling system (Amersham Pharmacia, Piscataway, N.J., USA). A 210 bp mouse CREBH cDNA fragment, a 250 bp mouse CRP cDNA fragment and a 260 bp mouse SAP cDNA fragment were amplified from murine total RNA by reverse transcription-PCR system (Roche Applied Science), respectively, and were used as probes for Northern blot analyses. Total RNA (15 μg) per sample purified from cultured cells or murine tissues was used for Northern blot analysis. Quantitative real-time RT-PCR was performed as previously described (Back et al., 2005). Briefly, total cellular RNA prepared was reverse-transcribed to cDNA using a random primer (Applied Biosystems). The reaction mixture, containing SYBR Green PCR Master Mix (Applied Biosystems), was run in a 7900HT Fast Real-Time PCR System (Applied Biosystems). Real-time PCR primer sequences for quantification of murine XBP1 mRNA splicing are: the forward primer 5′-[…]-3′, and the reverse primer 5′-[…]-3′. Other primer sequences were designed by Primer Express (Applied Biosystems).

[4] = system: CREBH; experiment: Endogenous CREBH cleavage in mouse liver (Western blot); type: in vivo; conditions: wild-type mice; 24 hours after i.p. injection
Method: (F-G) Expression of endogenous CREBH protein in the livers of wild-type (F) and CREBH knockdown (G) mice challenged with IL6 plus IL1β, LPS or Tm. Wild-type or CREBH knockdown mice of 3-month old were intraperitoneally injected with IL6 (25 ng/gram body weight) plus IL1β (25 ng/gram body weight), LPS (3 μg/gram body weight) or Tm (2 μg/gram body weight). Mice were injected with the same volume of NaCL solution as controls. Liver protein extracts were prepared at 24 hours after injection. Western blot analysis was performed by using a polyclonal anti-mouse CREBH antibody. The blots were reprobed with anti-α-actin antibody for loading controls.

[5] = system: CREBH; experiment: Confocal immunofluorescence of CREBH translocation in COS7 cells; type: cell-based; conditions: Tm 5 μg/ml 4 hours
Method: FIG. 3 depicts the effects of ER stress on CREBH: proteolytic cleavage of CREBH to release its N-terminal fragment that translocates into the nucleus. (A) Illustration of transmembrane domains and lumenal domains of SREBP, ATF6, Luman and CREBH in human (hs), mouse (mm). The conserved residues for S1P and S2P recognition are highlighted. (B) Cleavage of CREBH in H2.35 cells under different stimuli. H2.35 cells stably expressing flag-tagged human CREBH were treated with 0.5 μg/ml BFA, 20 ng/ml TNFα, 40 ng/ml IL6, 5 mM DTT, 0.5 μM Tg or 5 μg/ml Tm for 8 hours. Untransfected H2.35 cells (lane 1) and the H2.35 cells that stably express human CREBH (lane 2) were cultured under normal conditions as control. Total cell lysates were collected for Western blot analysis by using an anti-flag monoclonal antibody (upper panel). Levels of α-actin were determined for control of protein loading (lower panel). (C) Cleavage of CREBH in H2.35 cells under Tm treatment for various time periods. The H2.35 cells stably expressing flag-tagged CREBH were cultured in the absence or presence of Tm (5 μg/ml) for 4, 8 or 12 hours. […]
Immunofluorescence staining was performed as previously described (Paterson et al., 1995). […] The fluorescence images were examined by a confocal laser scanning fluorescence microscopy using an LSM510 (Carl Zeiss, Thornwood, N.Y.).

## tunicamycin [Tm]
[1]
  induction of endogenous ApoB mRNA in mice: only slightly increased
[2]
  expression of the CRP and SAP mRNA: increased expression of the CRP and SAP mRNA in a time-dependent manner
[3]
  induction of CREBH mRNA: minor effect
[4]
  cleaved form of CREBH in the livers: cleaved form of CREBH was increased
[5]
  nuclear accumulation of immunoreactive CREBH protein: a significant portion of the immunoreactive CREBH protein accumulated in the nucleus
